One may read the IC50 as the concentration that gives 50% inhibition.

This experiment in a line: Inhibitory activity against recombinant Mycobacterium tuberculosis beta-ketoacyl-Acyl Carrier Protein synthase mtFabH condensing enzyme.
For `C#CCC1(C)SC(=O)C(C)=C1O` (centres undefined), the IC50 came to 100 µM.

As to `COC(=O)c1ccc(C#CCC2(C)SC(O)=C(C)C2=O)cc1` (centres undefined), the IC50 is 74 µM.

Regarding `CC(=O)c1ccc(C#CCC2(C)SC(O)=C(C)C2=O)cc1O` (centres undefined), the IC50 turned out to be 7 µM.

`CC1=C(O)C(C)(CC#Cc2ccccc2C#N)SC1=O` (centres undefined): the IC50 was determined as 48 µM.

Turning to `CC1=C(O)C(C)(Cc2ccc(-c3ccc(COCc4ccccc4)cc3)cc2)SC1=O` (centres undefined), the IC50 was 17 µM.

`CC1=C(O)C(C)(CC#Cc2ccc([N+](=O)[O-])cc2)SC1=O` (centres undefined): the IC50 came out at 34 µM.

Regarding `CC1=C(O)C(C)(CC#Cc2ccc(C#N)cc2)SC1=O` (centres undefined), the IC50 was 7 µM.

In the case of `CC(=O)c1ccc(C#CCC2(C)SC(O)=C(C)C2=O)cc1` (centres undefined), the IC50 is 4 µM.

Consider `C=C/C(C)=C/[C@@]1(C)SC(=O)C(C)=C1O` [THIOLACTOMYCIN], for which the IC50 worked out at 74.9 µM.

(Values after ChEMBL document CHEMBL1146829, “Acetylene-based analogues of thiolactomycin, active against Mycobacterium tuberculosis mtFabH fatty acid condensing enzyme” (Bioorg Med Chem Lett, 2004).)
